Common to all, as to assay type: cell-based
In assay [1] the target is T1, hTAS2R7 (Homo sapiens, UniProt Q9NYW3).
T1 construct: expressed in transfected cells; host or cells: HEK293T cells stably expressing chimeric Gα16gust44, transient transfection
T1 sequence (Q9NYW3 1-318): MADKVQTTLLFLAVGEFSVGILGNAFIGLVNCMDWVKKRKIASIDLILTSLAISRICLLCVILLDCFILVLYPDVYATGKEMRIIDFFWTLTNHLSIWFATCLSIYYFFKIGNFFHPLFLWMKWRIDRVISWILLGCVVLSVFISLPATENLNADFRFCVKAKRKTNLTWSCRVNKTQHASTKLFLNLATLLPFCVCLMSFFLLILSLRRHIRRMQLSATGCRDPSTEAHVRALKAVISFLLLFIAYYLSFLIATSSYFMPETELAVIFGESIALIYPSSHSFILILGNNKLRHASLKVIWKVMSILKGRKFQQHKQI
As to the kind of experiment: calcium imaging (FLIPR), activation of hTAS2R-transfected HEK293T-Gα16gust44 cells. The following applies: 100 μM test substance, bath application. An excerpt: (§1) Human TAS2R cDNAs were cloned into pcDNA5/FRT (Invitrogen, San Diego, Calif.). For adequate plasma membrane targeting, receptor cDNA was fused to the aminoterminal sequence of the rat somatostatin type 3 receptor at the aminoterminus of the recombinant protein (Bufe, B., T. Hofmann, et al. (2002) Nat Genet. 32(3): 397-401). For immunological detection, the Herpes simplex Glycoprotein D epitope was supplemented at the carboxyterminus of the recombinant protein (Bufe et al., supra). Receptor constructs were transiently transfected into HEK293T cells stably expressing the chimeric G protein subunit Gα16gust44 (Ueda, T., S. Ugawa, et al. (2003) J Neurosci 23(19): 7376-80) using Lipofectamine 2000 (Invitrogen, San Diego, Calif.) in 96-well plates.
(§2) Calcium Imaging experiments were performed 24 h after transfection using a Fluorometric Imaging Plate Reader (FLIPR, Molecular Devices, Munich, Germany) as previously described (Bufe et al., supra). Taste active compounds were ordered from Sigma (Sigma-Aldrich, Taufkirchen, Germany). Absinthin, 3β hydroxy dihydro costunolide and 3β hydroxy pelenolide were kindly provided by Giovanni Appendino (Novara, Italy). Test substances were directly dissolved in C1 buffer (130 mM NaCl, 10 mM Na-Hepes, 10 mM Glucose, 5 mM KCl, 2 mM CaCl2, pH 7.4) or in DMSO, respectively. DMSO stocks were further diluted in C1 buffer not exceeding a final DMSO concentration of 1% on the cells. For the investigation of antagonistic effects, test substances were premixed. Agonists were applied at concentrations corresponding to EC90, except where indicated otherwise (Table 2). Data were collected from 3 independent experiments performed in quadruplicates and processed with SigmaPlot (SPSS, Chicago, Ill.). Fluorescence signals after application of test substances were corrected for and normalized to background fluorescence (ΔF/F═(F−F0)/F0), and baseline noise was subtracted. Calculation of dose-response curves was done by nonlinear regression using the function f(y)=((a−d)/(1+(x/EC50)^nH)+d).
(§3) In a first series of experiments we tested the two sesquiterpene lactones 3β hydroxy dihydro costunolide (formula (I) in FIG. 1) and 3β hydroxy pelenolide (formula (II) in FIG. 1) for their ability to activate hTAS2 receptor-expressing HEK293T cells.
(§4) Signal amplitudes were comparatively small (FIG. 2C).

Assay [2] addresses T2, hTAS2R4 (Homo sapiens, UniProt Q9NYW5).
T2 construct: expressed in transfected cells; host or cells: HEK293T cells stably expressing chimeric Gα16gust44, transient transfection
T2 sequence (Q9NYW5 1-299): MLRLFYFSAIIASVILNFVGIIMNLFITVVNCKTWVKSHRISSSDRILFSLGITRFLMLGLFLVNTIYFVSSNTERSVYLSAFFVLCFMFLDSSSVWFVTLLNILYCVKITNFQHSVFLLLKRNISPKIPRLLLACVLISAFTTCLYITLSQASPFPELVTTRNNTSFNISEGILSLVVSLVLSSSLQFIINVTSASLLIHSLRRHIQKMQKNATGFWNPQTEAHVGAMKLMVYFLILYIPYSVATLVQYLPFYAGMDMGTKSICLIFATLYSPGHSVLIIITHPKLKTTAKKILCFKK
Described as above. The following applies: 100 μM test substance, bath application.
Source text: as §1, §2, §3, §4

The target in assay [3] is T3, hTAS2R40 (Homo sapiens, UniProt P59535).
T3 construct: expressed in transfected cells; host or cells: HEK293T cells stably expressing chimeric Gα16gust44, transient transfection
T3 sequence (P59535 whole entry): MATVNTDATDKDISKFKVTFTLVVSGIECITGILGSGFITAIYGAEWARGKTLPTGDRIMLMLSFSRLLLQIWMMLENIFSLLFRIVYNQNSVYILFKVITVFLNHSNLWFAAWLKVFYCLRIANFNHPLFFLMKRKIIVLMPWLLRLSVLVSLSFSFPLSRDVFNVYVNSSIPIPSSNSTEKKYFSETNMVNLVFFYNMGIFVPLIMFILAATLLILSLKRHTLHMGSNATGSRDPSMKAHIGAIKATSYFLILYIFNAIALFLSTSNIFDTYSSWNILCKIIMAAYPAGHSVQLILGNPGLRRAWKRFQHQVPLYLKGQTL
As to the kind of experiment: calcium imaging (FLIPR), effect on agonist-dependent hTAS2R activation. Conditions: 100 μM test substance; agonist cohumulone 0.3 μM (EC90); agonist alone = 100%.
Source text: as §1, §2
(§5) To test 3β hydroxy dihydro costunolide and 3β hydroxy pelenolide for antagonistic or enhancing effects on hTAS2R activation, transfected cells were stimulated with cognate agonist bitter substances at EC90 concentrations (Table 2) without 3β hydroxy dihydro costunolide and 3β hydroxy pelenolide. The cellular responses after application of the agonist alone were set to 100%, responses obtained after coapplication of agonists and 100 μM 3β hydroxy dihydro costunolide or 100 μM 3β hydroxy pelenolide are shown relative to this value (FIG. 4).

In assay [4] the target is T4, hTAS2R47 (Homo sapiens, UniProt P59541).
T4 construct: expressed in transfected cells; host or cells: HEK293T cells stably expressing chimeric Gα16gust44, transient transfection
T4 sequence (P59541 1-319): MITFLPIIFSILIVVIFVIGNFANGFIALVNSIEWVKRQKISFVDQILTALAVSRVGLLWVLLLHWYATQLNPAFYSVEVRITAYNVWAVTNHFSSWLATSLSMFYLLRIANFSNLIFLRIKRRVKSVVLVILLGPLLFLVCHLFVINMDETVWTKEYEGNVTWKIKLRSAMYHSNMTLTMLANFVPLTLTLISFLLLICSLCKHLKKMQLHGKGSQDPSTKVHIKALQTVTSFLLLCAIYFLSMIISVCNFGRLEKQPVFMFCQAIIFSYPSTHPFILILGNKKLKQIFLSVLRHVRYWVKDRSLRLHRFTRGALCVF
The assay is described as above. Conditions: 100 μM test substance; agonist brucine 100 μM (EC90); agonist alone = 100%.
Source text: as §1, §2, §5

Assay [5] deals with T5, hTAS2R43 (Homo sapiens, UniProt P59537, H212R/W35S).
T5 construct: expressed in transfected cells; host or cells: HEK293T cells stably expressing chimeric Gα16gust44, transient transfection
T5 sequence (P59537 1-309 W35S/H212R): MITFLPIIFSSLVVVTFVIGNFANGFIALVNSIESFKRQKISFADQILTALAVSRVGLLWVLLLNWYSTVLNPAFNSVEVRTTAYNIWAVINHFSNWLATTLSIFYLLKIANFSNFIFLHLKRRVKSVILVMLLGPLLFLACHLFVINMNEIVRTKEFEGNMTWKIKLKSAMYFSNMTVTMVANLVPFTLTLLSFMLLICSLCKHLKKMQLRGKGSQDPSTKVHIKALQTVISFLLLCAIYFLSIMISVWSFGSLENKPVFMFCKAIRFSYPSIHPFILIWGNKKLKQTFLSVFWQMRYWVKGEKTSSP
Described as above. The following applies: 100 μM test substance; agonist aristolochic acids 0.3 μM (EC90); agonist alone = 100%.
Source text: as §1, §2, §5

SMILES strings stand for the structures.

`C/C1=C\C[C@H](O)/C(C)=C/[C@H]2OC(=O)[C@@H](C)C2CC1` (stereo partly drawn) [3β hydroxy dihydro costunolide]: the “calcium response of hTAS2R7-transfected cells” value in assay [1] was “responded”. For the same molecule, in assay [2], the “calcium response of hTAS2R4-transfected cells” value was “responded”. Moreover, the “agonist-dependent response of hTAS2R40-expressing cells on coapplication” value in assay [3] is “only moderately reduced”. Also, the “agonist-dependent response of hTAS2R47-expressing cells on coapplication” value in assay [4] is listed as “complete block”. Moreover, the “agonist-dependent response of hTAS2R43-expressing cells on coapplication” value in assay [5] is “only moderately reduced”.

As to `C/C1=C\C[C@H](O)[C@@H](C)C[C@H]2OC(=O)[C@@H](C)[C@@H]2CC1` [3β hydroxy pelenolide], the “agonist-dependent response of hTAS2R40-expressing cells on coapplication” value in assay [3] is reported as “moderately attenuating effect”. Moreover, in assay [4], the “agonist-dependent response of hTAS2R47-expressing cells on coapplication” value is reported as “completely inhibited”. Besides, the “agonist-dependent response of hTAS2R43-expressing cells on coapplication” value in assay [5] is “completely inhibited”.
